The text below walks through data of US9920017B2, “Heterocyclic compounds as pesticides” (BAYER CROPSCIENCE AKTIENGESELLSCHAFT, priority 2014, dated 2018).

One data set can be described thus: Determination of log P values by HPLC (reversed-phase C18). It is filed as physicochemical. Particulars: HPLC, reversed-phase C18, 55° C.; final compounds table. The protocol: 1) Description of Method for Determination of the Log P Values ([…]) The log P values given in the table were determined in accordance with EEC Directive 79/831 Annex V.A8 by HPLC (High Performance Liquid Chromatography) using a reversed-phase column (C 18). Temperature: 55° C. […] Gradient: from 10% eluent A/90% eluent B to 95% eluent A/5% eluent B in 4.25 min. Calibration was effected with unbranched alkan-2-ones (having 3 to 16 carbon atoms) with known log P values (log P values determined on the basis of the retention times by linear interpolation between two successive alkanones). The lambda max values were determined in the maxima of the chromatographic signals using the UV spectra from 200 nm to 400 nm.
With `O=C(Nc1ncn(-c2ccccc2F)n1)c1ccccc1Cl` [Compound I-1-1], the “log P neutral” value came to 1.88.
On the same count and under the same terms, next, `O=C(Nc1ncn(-c2ccccc2F)n1)c1ccccc1C(F)(F)F` [Compound I-1-2]: 2.06; `O=C(Nc1ncn(-c2ccccc2Cl)n1)c1ccccc1C(F)(F)F` [Compound I-1-3]: 2.10; `O=C(Nc1ncn(-c2ccccc2Cl)n1)c1ccccc1Cl` [Compound I-1-5]: 1.91.
On the same count and under the same terms, next, `O=C(Nc1ncn(-c2ccccc2Cl)n1)c1c(F)cccc1F` [Compound I-1-6]: 1.90; `O=C(Nc1ncn(-c2ccccc2C(F)(F)F)n1)c1ccccc1Cl` [Compound I-1-7]: 2.06; `O=C(Nc1ncn(-c2ccccc2OC(F)(F)F)n1)c1ccccc1Cl` [Compound I-1-9]: 2.32.
In the case of `COc1ccccc1C(=O)Nc1ncn(-c2c(F)cccc2F)n1` [Compound I-1-16], the “log P neutral” value is given as 1.91.
Still for that read-out and setting: next, `O=C(Nc1ncn(-c2c(F)cccc2F)n1)c1ccccc1OC(F)(F)F` [Compound I-1-17]: 2.14.
As for `O=C(Nc1ncn(-c2c(F)cccc2F)n1)c1cccnc1Cl` [Compound I-1-23], the “log P neutral” value is listed as 1.24.
Regarding `O=C(Nc1ncn(-c2c(F)cccc2Cl)n1)c1ccccc1OC(F)(F)F` [Compound I-1-34], the “log P neutral” value turned out to be 2.30.
Turning to `O=C(Nc1ncn(-c2c(F)cccc2Cl)n1)c1ccccc1Cl` [Compound I-1-36], the “log P neutral” value was 1.83.
As for `Cc1cccc(F)c1-n1cnc(NC(=O)c2ccccc2C(F)(F)F)n1` [Compound I-1-37], the “log P neutral” value was determined as 2.19.
The same measure, in the same setting: next, `Cc1cccc(F)c1-n1cnc(NC(=O)c2ccccc2Cl)n1` [Compound I-1-38]: 1.99; `Cc1cccc(F)c1-n1cnc(NC(=O)c2ccccc2I)n1` [Compound I-1-39]: 2.13; `Cc1cccc(Cl)c1-n1cnc(NC(=O)c2ccccc2Cl)n1` [Compound I-1-41]: 2.04.
Consider `CCc1cccc(Cl)c1-n1cnc(NC(=O)c2ccccc2Cl)n1` [Compound I-1-43], for which the “log P neutral” value is reported as 2.36.
In the case of `Cc1cccc(C)c1-n1cnc(NC(=O)c2ccccc2Cl)n1` [Compound I-1-47], the “log P neutral” value is 2.04.
Still for that read-out and setting: the figure for `Cc1cccc(C)c1-n1cnc(NC(=O)c2ccccc2C(F)(F)F)n1` [Compound I-1-48] is 2.26.
Regarding `COc1cccc(C)c1-n1cnc(NC(=O)c2ccccc2C(F)(F)F)n1` [Compound I-1-49], the “log P neutral” value was found to be 2.15.
Still for that read-out and setting: the figure for `COc1cccc(C)c1-n1cnc(NC(=O)c2ccccc2Cl)n1` [Compound I-1-50] is 1.95; for `O=C(Nc1ncn(-c2cccc(Cl)c2Cl)n1)c1ccccc1C(F)(F)F` [Compound I-1-51] it is 2.49.
Same read-out and setting: next, `O=C(Nc1ncn(-c2cccc(Cl)c2Cl)n1)c1ccccc1Cl` [Compound I-1-52]: 2.29.
Same read-out and setting: the figure for `O=C(Nc1ncn(-c2ccc(Cl)cc2Cl)n1)c1ccccc1C(F)(F)F` [Compound I-1-53] is 2.58.
With `O=C(Nc1ncn(-c2cc(Cl)ccc2Cl)n1)c1ccccc1C(F)(F)F` [Compound I-1-54], the “log P neutral” value is recorded as 2.55.
On the same count and under the same terms, the figure for `O=C(Nc1ncn(-c2cc(Cl)ccc2Cl)n1)c1ccccc1Cl` [Compound I-1-55] is 2.34; for `O=C(Nc1ncn(-c2c(F)c(F)c(F)c(F)c2F)n1)c1ccccc1Cl` [Compound I-1-66] it is 2.28.
Regarding `CCc1ccccc1C(=O)Nc1ncn(-c2c(F)c(F)c(F)c(F)c2F)n1` [Compound I-1-68], the “log P neutral” value amounted to 2.61.
Same read-out and setting: the figure for `O=C(Nc1ncn(-c2ccccc2Br)n1)c1ccccc1Cl` [Compound I-1-71] is 1.96.
Still for that read-out and setting: next, `CCc1ccccc1C(=O)Nc1ncn(-c2ccccc2Br)n1` [Compound I-1-73]: 2.34.
For `O=C(Nc1ncn(-c2ccccc2I)n1)c1ccccc1Cl` [Compound I-1-76], the “log P neutral” value stood at 2.01.
For the compound `O=C(Nc1ncn(-c2ccccc2I)n1)c1ccccc1I` [Compound I-1-77], the “log P neutral” value was determined as 2.15.
Still for that read-out and setting: next, `CCc1ccccc1C(=O)Nc1ncn(-c2ccccc2I)n1` [Compound I-1-78]: 2.31; `CCc1ccccc1C(=O)Nc1ncn(-c2c(Br)cccc2Br)n1` [Compound I-1-81]: 2.45.
The same measure, in the same setting: the figure for `O=C(Nc1ncn(-c2c(F)cccc2I)n1)c1ccccc1Cl` [Compound I-1-84] is 2.02; for `O=C(Nc1ncn(-c2c(Br)cc(F)cc2Br)n1)c1ccccc1Cl` [Compound I-1-88] it is 2.26.
On the same count and under the same terms, the figure for `O=C(Nc1ncn(-c2c(F)cccc2F)n1)c1ccsc1I` [Compound I-1-94] is 1.92; for `CCc1ccccc1C(=O)Nc1ncn(-c2ccccc2C(F)(F)F)n1` [Compound I-1-95] it is 2.33; for `Cc1cc(C)c(S(=O)(=O)CC(F)(F)F)cc1-n1cnc(NC(=O)c2ccccc2C(F)(F)F)n1` [Compound I-1-96] it is 2.49.
In the case of `Cc1cc(C)c(-n2cnc(NC(=O)c3ccccc3C(F)(F)F)n2)cc1SCC(F)(F)F` [Compound I-1-98], the “log P neutral” value was 3.21.

The data set is the same for the next values; noted with them: N-[1-aryl-1H-1,2,4-triazol-3-yl]benzamides, formula (1-9).
In the case of `O=C(Nc1ncn(-c2c(Br)cc(F)cc2Br)n1)c1ccccc1` [1-9 R1=Br R2m=6-Br-4-F], the “logP (neutral)” value stood at 2.14.
Take `O=C(Nc1ncn(-c2c(Br)cccc2Br)n1)c1ccccc1` [1-9 R1=Br R2m=6-Br]: the “logP (neutral)” value came to 2.00.
For `O=C(Nc1ncn(-c2ccccc2Br)n1)c1ccccc1` [1-9 R1=Br R2m=—], the “logP (neutral)” value was found to be 1.80.
Still for that read-out and setting: next, `O=C(Nc1ncn(-c2ccccc2C(F)(F)F)n1)c1ccccc1` [1-9 R1=CF3 R2m=—]: 1.91; `COc1cccc(C)c1-n1cnc(NC(=O)c2ccccc2)n1` [1-9 R1=CH3 R2m=6-OCH3]: 1.76; `O=C(Nc1ncn(-c2cccc(Cl)c2Cl)n1)c1ccccc1` [1-9 R1=Cl R2m=3-Cl]: 2.11.
As to `O=C(Nc1ncn(-c2ccc(Cl)cc2Cl)n1)c1ccccc1` [1-9 R1=Cl R2m=4-Cl], the “logP (neutral)” value came out at 2.18.
On to `O=C(Nc1ncn(-c2cc(Cl)ccc2Cl)n1)c1ccccc1` [1-9 R1=Cl R2m=5-Cl], for which the “logP (neutral)” value came to 2.17.
Same read-out and setting: the figure for `CCc1cccc(Cl)c1-n1cnc(NC(=O)c2ccccc2)n1` [1-9 R1=Cl R2m=6-C2H5] is 2.2.
With `Cc1cccc(Cl)c1-n1cnc(NC(=O)c2ccccc2)n1` [1-9 R1=Cl R2m=6-CH3], the “logP (neutral)” value was found to be 1.92.
Still for that read-out and setting: next, `O=C(Nc1ncn(-c2c(Cl)cccc2Cl)n1)c1ccccc1` [1-9 R1=Cl R2m=6-Cl]: 1.8; `O=C(Nc1ncn(-c2c(F)cccc2Cl)n1)c1ccccc1` [1-9 R1=Cl R2m=6-F]: 1.75.
Still for that read-out and setting: the figure for `O=C(Nc1ncn(-c2ccccc2Cl)n1)c1ccccc1` [1-9 R1=Cl R2m=—] is 1.75; for `O=C(Nc1ncn(-c2c(F)c(F)c(F)c(F)c2F)n1)c1ccccc1` [1-9 R1=F R2m=3,4,5,6-F4] it is 2.11; for `O=C(Nc1ncn(-c2c(F)ccc(F)c2F)n1)c1ccccc1` [1-9 R1=F R2m=3,6-F2] it is 1.73.
Same read-out and setting: the figure for `O=C(Nc1ncn(-c2c(F)cc(F)cc2F)n1)c1ccccc1` [1-9 R1=F R2m=4,6-F2] is 1.71; for `Cc1cccc(F)c1-n1cnc(NC(=O)c2ccccc2)n1` [1-9 R1=F R2m=6-CH3] it is 1.89; for `O=C(Nc1ncn(-c2c(F)cccc2I)n1)c1ccccc1` [1-9 R1=F R2m=6-I] it is 1.79.
Turning to `O=C(Nc1ncn(-c2ccccc2F)n1)c1ccccc1` [1-9 R1=F R2m=—], the “logP (neutral)” value was 1.69.
Still for that read-out and setting: the figure for `O=C(Nc1ncn(-c2ccccc2I)n1)c1ccccc1` [1-9 R1=I R2m=—] is 1.87; for `O=C(Nc1ncn(-c2ccccc2OC(F)(F)F)n1)c1ccccc1` [1-9 R1=OCF3 R2m=—] it is 2.15.

The same data set, now with this note: reversed-phase C18 HPLC column, pH 3.4; HPLC-MS, preparation examples; read-out: log P.
With `Nc1ncn(-c2ncc(F)cc2F)n1` [1-(3,5-Difluoropyridin-2-yl)-1H-1,2,4-triazol-3-amine], the chromatographic logP amounted to 0.3.
For `COc1ccccc1-n1nnc(NC(=O)c2ccccc2C(F)(F)F)n1` [Compound I-2-1, N-[2-(2-Methoxyphenyl)-2H-tetrazol-5-yl]-2-(trifluoromethyl)benzamide], the chromatographic logP amounted to 2.19.
With `COc1cc(F)ccc1-n1nnc(NC(=O)c2ccccc2C(F)(F)F)n1` [Compound I-2-2, N-[2-(4-Fluoro-2-methoxyphenyl)-2H-tetrazol-5-yl]-2-(trifluoromethyl)benzamide], the chromatographic logP was found to be 2.35.

Still in this data set, the particulars now being: reversed-phase C18 HPLC column; HPLC, reversed-phase C18, 55° C.; final compounds table; read-out: log P neutral.
Regarding `COc1ccccc1-n1nnc(NC(=O)c2ccccc2C(F)(F)F)n1` [Compound I-2-1, N-[2-(2-Methoxyphenyl)-2H-tetrazol-5-yl]-2-(trifluoromethyl)benzamide], the chromatographic logP came to 2.19.
On the same count and under the same terms, next, `COc1cc(F)ccc1-n1nnc(NC(=O)c2ccccc2C(F)(F)F)n1` [Compound I-2-2, N-[2-(4-Fluoro-2-methoxyphenyl)-2H-tetrazol-5-yl]-2-(trifluoromethyl)benzamide]: 2.35.

The data set is the same for the next values; noted with them: reversed-phase C18 HPLC column; HPLC-MS, preparation examples; read-out: log P (neutral).
`Nc1ncn(-c2c(F)cccc2F)n1` [1-(2,6-Difluorophenyl)-1H-1,2,4-triazol-3-amine]: the chromatographic logP was found to be 0.61.
The same measure, in the same setting: next, `Nc1ncn(-c2c(F)cccc2Br)n1` [1-(2-Bromo-6-fluorophenyl)-1H-1,2,4-triazol-3-amine]: 0.92; `Nc1ncn(-c2c(F)cccc2C(F)(F)F)n1` [1-[2-Fluoro-6-(trifluoromethyl)phenyl]-1H-1,2,4-triazol-3-amine]: 1.09.
On the same count and under the same terms, the figure for `Nc1noc(-c2ccccc2)n1` [5-Phenyl-1,2,4-oxadiazol-3-amine] is 1.28.
